According to patent US12540150B1, “Fluorogenic probe using a Mislow-Evans rearrangement for real-time imaging of hydrogen peroxide” (University of Pittsburgh—Of the Commonwealth System of …, priority 2020, dated 2026):
Values joined by “and” are separate entries in the source; they are usually repeats but may differ in a detail not shown here. Identical values can stand only once.

Experiment: Kinetics of the reaction of 1 with H2O2

In the case of Oc1ccc2c(c1)Oc1cc(O/C=C/C[Se]c3ccccc3)ccc1[C@@]21OCc2ccccc21 [Compound 1, (S,E)-6′-((3-(Phenylselanyl)prop-1-en-1-yl)oxy)-3H-spiro[isobenzofuran-1,9′-xanthen]-3′-ol], the “[1]” value ([H2O2] = 0.625 mM, 330 s) is reported as 0.6374 µM and 0.3787 µM and 0.4115 µM, the “F-F0 (515 nm)” value ([H2O2] = 0.625 mM, 390 s) is reported as 450,025 and 534,705 and 536,252 and the “[1]” value ([H2O2] = 0.625 mM, 390 s) is reported as 0.5643 µM and 0.3470 µM and 0.3431 µM. For the same molecule, the “F-F0 (515 nm)” value ([H2O2] = 0.625 mM, 450 s) was 477,638 and 541,922 and 555,207, the “[1]” value ([H2O2] = 0.625 mM, 450 s) was 0.4935 µM and 0.3285 µM and 0.2944 µM and the “F-F0 (515 nm)” value ([H2O2] = 0.625 mM, 510 s) was 501,767 and 546,290 and 569,868. The “[1]” value ([H2O2] = 0.625 mM, 510 s) was 0.4316 µM and 0.3173 µM and 0.2568 µM, the “F-F0 (515 nm)” value ([H2O2] = 0.625 mM, 570 s) was 524,121 and 550,122 and 581,518 and the “[1]” value ([H2O2] = 0.625 mM, 570 s) was 0.3742 µM and 0.3075 µM and 0.2269 µM. The “F-F0 (515 nm)” value ([H2O2] = 0.625 mM, 630 s) was 543,908 and 551,490 and 591,076, the “[1]” value ([H2O2] = 0.625 mM, 630 s) was 0.3234 µM and 0.3040 µM and 0.2024 µM and the “F-F0 (515 nm)” value ([H2O2] = 0.625 mM, 690 s) was 559,985 and 551,741 and 599,176. The “[1]” value ([H2O2] = 0.625 mM, 690 s) was 0.2822 µM and 0.3033 µM and 0.1816 µM, the “F-F0 (515 nm)” value ([H2O2] = 0.625 mM, 750 s) was 570,897 and 553,475 and 603,780 and the “[1]” value ([H2O2] = 0.625 mM, 750 s) was 0.2542 µM and 0.2989 µM and 0.1698 µM. The “F-F0 (515 nm)” value ([H2O2] = 0.625 mM, 810 s) was 580,693 and 553,568 and 609,902, the “[1]” value ([H2O2] = 0.625 mM, 810 s) was 0.2290 µM and 0.2986 µM and 0.1541 µM and the “F-F0 (515 nm)” value ([H2O2] = 0.625 mM, 870 s) was 587,536 and 552,326 and 614,108. The “F-F0 (515 nm)” value ([H2O2] = 1.25 mM, 30 s) was 255,659 and 258,915 and 225,047, the “[1]” value ([H2O2] = 1.25 mM, 30 s) was 1.0631 µM and 1.0547 µM and 1.1417 µM and the “F-F0 (515 nm)” value ([H2O2] = 1.25 mM, 90 s) was 364,712 and 517,271 and 484,926. The “[1]” value ([H2O2] = 1.25 mM, 90 s) was 0.7833 µM and 0.3918 µM and 0.4748 µM, the “F-F0 (515 nm)” value ([H2O2] = 1.25 mM, 150 s) was 463,364 and 607,290 and 590,662 and the “F-F0 (515 nm)” value ([H2O2] = 1.25 mM, 210 s) was 514,663 and 641,798 and 639,332. For the same molecule, the “F-F0 (515 nm)” value ([H2O2] = 1.25 mM, 270 s) was 549,297 and 656,229 and 660,178, the “F-F0 (515 nm)” value ([H2O2] = 1.25 mM, 330 s) was 572,635 and 661,539 and 664,254 and the “F-F0 (515 nm)” value ([H2O2] = 1.25 mM, 390 s) was 589,797 and 665,178 and 666,753. The “F-F0 (515 nm)” value ([H2O2] = 1.25 mM, 450 s) was 601,493 and 663,842 and 669,367, the “F-F0 (515 nm)” value ([H2O2] = 1.25 mM, 510 s) was 606,377 and 663,608 and 673,539 and the “F-F0 (515 nm)” value ([H2O2] = 1.25 mM, 570 s) was 612,207 and 662,594 and 675,671. The “F-F0 (515 nm)” value ([H2O2] = 1.25 mM, 630 s) was 614,405 and 663,947 and 677,477, the “F-F0 (515 nm)” value ([H2O2] = 1.25 mM, 690 s) was 616,203 and 663,123 and 679,640 and the “F-F0 (515 nm)” value ([H2O2] = 1.25 mM, 750 s) was 616,371 and 663,595 and 679,888. For the same molecule, the “F-F0 (515 nm)” value ([H2O2] = 1.25 mM, 810 s) was 614,783 and 663,765 and 683,016, the “F-F0 (515 nm)” value ([H2O2] = 1.25 mM, 870 s) was 614,819 and 662,173 and 685,799 and the “F-F0 (515 nm)” value ([H2O2] = 2.5 mM, 30 s) was 425,024 and 405,551 and 398,309. The “[1]” value ([H2O2] = 2.5 mM, 30 s) was 0.6285 µM and 0.6785 µM and 0.6971 µM, the “F-F0 (515 nm)” value ([H2O2] = 2.5 mM, 90 s) was 539,467 and 612,814 and 630,136 and the “F-F0 (515 nm)” value ([H2O2] = 2.5 mM, 150 s) was 601,940 and 657,981 and 671,946. The “F-F0 (515 nm)” value ([H2O2] = 2.5 mM, 210 s) was 627,168 and 666,435 and 680,181, the “F-F0 (515 nm)” value ([H2O2] = 2.5 mM, 270 s) was 636,230 and 665,190 and 679,366 and the “F-F0 (515 nm)” value ([H2O2] = 2.5 mM, 330 s) was 638,753 and 666,173 and 674,138. For the same molecule, the “F-F0 (515 nm)” value ([H2O2] = 2.5 mM, 390 s) was 641,141 and 663,899 and 664,993, the “F-F0 (515 nm)” value ([H2O2] = 2.5 mM, 450 s) was 640,270 and 661,893 and 664,416 and the “F-F0 (515 nm)” value ([H2O2] = 2.5 mM, 510 s) was 639,383 and 659,509 and 664,003. The “F-F0 (515 nm)” value ([H2O2] = 2.5 mM, 570 s) was 637,346 and 658,746 and 663,104, the “F-F0 (515 nm)” value ([H2O2] = 2.5 mM, 630 s) was 637,422 and 656,826 and 661,222 and the “F-F0 (515 nm)” value ([H2O2] = 2.5 mM, 690 s) was 636,174 and 654,911 and 659,002. The “F-F0 (515 nm)” value ([H2O2] = 2.5 mM, 750 s) was 634,294 and 654,494 and 657,410, the “F-F0 (515 nm)” value ([H2O2] = 2.5 mM, 810 s) was 631,953 and 653,606 and 654,988 and the “F-F0 (515 nm)” value ([H2O2] = 2.5 mM, 870 s) was 631,346 and 651,140 and 655,338.
